Measurements reported in paper PMC3961306, “Comparison of the Cancer Gene Targeting and Biochemical Selectivities of All Targeted Kinase Inhibitors Approved for Clinical Use” (PLoS ONE, 2014).

Experiments:
Experiment in all cases: Kinase profiling in a biochemical assay panel (mobility shift assays and ELISA), %-inhibition at 1 μM; selectivity entropy
[1] = target: panel of more than 300 wild-type and mutant kinases (313 kinase panel) (Homo sapiens, UniProt P00533); conditions: kinase EGFR; compound at 1 μM
[2] = target: panel of more than 300 wild-type and mutant kinases (313 kinase panel) (Homo sapiens, UniProt P00533, T790M); conditions: kinase EGFR(T790M); compound at 1 μM
[3] = target: T1, panel of more than 300 wild-type and mutant kinases (313 kinase panel) (Homo sapiens, UniProt O00444); conditions: kinase PLK4; 1 μM
T1 sequence (O00444 1-970): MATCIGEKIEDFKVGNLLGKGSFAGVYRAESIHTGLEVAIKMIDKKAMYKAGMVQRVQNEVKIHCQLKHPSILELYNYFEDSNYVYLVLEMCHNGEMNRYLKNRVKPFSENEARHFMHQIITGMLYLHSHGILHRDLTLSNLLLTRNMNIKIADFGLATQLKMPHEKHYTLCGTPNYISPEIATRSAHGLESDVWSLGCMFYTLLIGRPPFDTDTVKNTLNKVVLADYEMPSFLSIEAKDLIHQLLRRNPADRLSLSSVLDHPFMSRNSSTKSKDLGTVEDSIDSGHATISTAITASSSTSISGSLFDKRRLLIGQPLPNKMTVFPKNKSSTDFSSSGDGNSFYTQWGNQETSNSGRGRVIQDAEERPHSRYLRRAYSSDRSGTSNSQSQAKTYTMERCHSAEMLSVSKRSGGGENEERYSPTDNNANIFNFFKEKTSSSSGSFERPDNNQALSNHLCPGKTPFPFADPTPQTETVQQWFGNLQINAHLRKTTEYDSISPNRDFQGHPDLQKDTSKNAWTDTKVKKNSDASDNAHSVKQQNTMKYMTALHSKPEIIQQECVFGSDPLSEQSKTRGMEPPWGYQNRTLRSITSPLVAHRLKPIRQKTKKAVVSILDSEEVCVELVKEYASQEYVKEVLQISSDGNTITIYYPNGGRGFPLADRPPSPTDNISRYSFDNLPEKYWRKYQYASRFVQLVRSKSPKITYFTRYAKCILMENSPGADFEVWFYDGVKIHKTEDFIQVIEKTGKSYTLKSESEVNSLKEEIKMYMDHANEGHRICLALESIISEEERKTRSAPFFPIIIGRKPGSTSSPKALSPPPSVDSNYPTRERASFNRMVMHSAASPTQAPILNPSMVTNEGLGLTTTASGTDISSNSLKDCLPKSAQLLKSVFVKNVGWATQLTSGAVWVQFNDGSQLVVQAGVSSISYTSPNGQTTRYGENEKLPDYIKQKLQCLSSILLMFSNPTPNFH

[4] = target: T2, panel of more than 300 wild-type and mutant kinases (313 kinase panel) (Homo sapiens, UniProt P42679); conditions: kinase CTK; compound at 1 μM
T2 sequence (P42679 1-507): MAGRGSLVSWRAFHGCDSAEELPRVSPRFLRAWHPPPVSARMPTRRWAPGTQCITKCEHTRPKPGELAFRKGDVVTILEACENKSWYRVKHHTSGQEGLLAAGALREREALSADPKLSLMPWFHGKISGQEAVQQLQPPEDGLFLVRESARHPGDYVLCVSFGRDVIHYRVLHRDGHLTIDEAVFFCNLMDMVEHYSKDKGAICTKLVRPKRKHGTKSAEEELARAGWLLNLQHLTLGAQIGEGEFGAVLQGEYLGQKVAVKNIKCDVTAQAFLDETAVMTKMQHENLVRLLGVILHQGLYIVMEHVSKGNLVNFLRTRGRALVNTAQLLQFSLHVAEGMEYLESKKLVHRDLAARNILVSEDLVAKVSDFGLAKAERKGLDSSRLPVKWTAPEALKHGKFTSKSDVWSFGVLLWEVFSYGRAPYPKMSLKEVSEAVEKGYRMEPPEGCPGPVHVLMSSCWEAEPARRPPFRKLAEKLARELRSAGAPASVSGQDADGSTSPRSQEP

[5] = target: panel of more than 300 wild-type and mutant kinases (313 kinase panel) (Homo sapiens, UniProt P00533, L861Q); conditions: kinase EGFR(L861Q); compound at 1 μM
[6] = target: panel of more than 300 wild-type and mutant kinases (313 kinase panel) (Homo sapiens, UniProt O75914); conditions: kinase PAK3; 1 μM
[7] = target: panel of more than 300 wild-type and mutant kinases (313 kinase panel) (Homo sapiens, UniProt P00533, L858R/T790M); conditions: kinase EGFR(T790M/L858R); compound at 1 μM
panel of more than 300 wild-type and mutant kinases (313 kinase panel) (Homo sapiens, UniProt P00533, L858R/T790M), sequence (P00533 25-1210 T790M/L858R): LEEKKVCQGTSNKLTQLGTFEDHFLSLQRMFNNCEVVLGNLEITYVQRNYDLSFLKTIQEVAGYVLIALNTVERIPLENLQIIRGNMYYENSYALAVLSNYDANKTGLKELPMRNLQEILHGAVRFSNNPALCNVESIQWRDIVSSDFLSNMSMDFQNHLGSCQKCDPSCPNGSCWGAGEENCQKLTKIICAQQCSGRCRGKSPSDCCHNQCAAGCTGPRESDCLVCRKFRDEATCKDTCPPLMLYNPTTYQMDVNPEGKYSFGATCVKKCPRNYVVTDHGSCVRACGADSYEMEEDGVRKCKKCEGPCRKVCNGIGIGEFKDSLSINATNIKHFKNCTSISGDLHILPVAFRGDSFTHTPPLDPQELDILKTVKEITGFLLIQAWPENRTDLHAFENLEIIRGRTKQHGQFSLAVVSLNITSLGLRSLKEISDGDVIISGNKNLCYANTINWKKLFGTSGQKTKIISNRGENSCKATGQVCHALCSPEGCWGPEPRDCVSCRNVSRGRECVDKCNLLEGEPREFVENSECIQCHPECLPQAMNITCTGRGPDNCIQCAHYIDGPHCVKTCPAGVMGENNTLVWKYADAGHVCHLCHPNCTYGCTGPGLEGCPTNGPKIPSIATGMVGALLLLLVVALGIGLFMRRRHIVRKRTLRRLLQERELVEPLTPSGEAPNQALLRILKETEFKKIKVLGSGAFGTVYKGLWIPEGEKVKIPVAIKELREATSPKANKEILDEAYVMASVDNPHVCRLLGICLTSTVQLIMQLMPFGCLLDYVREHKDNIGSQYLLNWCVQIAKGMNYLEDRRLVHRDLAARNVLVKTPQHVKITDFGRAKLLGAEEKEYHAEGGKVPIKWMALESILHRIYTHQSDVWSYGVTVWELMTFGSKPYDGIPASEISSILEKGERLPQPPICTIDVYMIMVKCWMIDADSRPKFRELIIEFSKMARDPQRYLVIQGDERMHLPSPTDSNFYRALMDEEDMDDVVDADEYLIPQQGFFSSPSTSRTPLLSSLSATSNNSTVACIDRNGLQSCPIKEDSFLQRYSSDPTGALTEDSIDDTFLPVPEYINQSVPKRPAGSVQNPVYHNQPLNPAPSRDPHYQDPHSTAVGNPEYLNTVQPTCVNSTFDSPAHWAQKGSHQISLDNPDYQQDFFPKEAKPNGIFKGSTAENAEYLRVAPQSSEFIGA

panel of more than 300 wild-type and mutant kinases (313 kinase panel) (Homo sapiens, UniProt P00533, T790M), sequence (P00533 25-1210 T790M): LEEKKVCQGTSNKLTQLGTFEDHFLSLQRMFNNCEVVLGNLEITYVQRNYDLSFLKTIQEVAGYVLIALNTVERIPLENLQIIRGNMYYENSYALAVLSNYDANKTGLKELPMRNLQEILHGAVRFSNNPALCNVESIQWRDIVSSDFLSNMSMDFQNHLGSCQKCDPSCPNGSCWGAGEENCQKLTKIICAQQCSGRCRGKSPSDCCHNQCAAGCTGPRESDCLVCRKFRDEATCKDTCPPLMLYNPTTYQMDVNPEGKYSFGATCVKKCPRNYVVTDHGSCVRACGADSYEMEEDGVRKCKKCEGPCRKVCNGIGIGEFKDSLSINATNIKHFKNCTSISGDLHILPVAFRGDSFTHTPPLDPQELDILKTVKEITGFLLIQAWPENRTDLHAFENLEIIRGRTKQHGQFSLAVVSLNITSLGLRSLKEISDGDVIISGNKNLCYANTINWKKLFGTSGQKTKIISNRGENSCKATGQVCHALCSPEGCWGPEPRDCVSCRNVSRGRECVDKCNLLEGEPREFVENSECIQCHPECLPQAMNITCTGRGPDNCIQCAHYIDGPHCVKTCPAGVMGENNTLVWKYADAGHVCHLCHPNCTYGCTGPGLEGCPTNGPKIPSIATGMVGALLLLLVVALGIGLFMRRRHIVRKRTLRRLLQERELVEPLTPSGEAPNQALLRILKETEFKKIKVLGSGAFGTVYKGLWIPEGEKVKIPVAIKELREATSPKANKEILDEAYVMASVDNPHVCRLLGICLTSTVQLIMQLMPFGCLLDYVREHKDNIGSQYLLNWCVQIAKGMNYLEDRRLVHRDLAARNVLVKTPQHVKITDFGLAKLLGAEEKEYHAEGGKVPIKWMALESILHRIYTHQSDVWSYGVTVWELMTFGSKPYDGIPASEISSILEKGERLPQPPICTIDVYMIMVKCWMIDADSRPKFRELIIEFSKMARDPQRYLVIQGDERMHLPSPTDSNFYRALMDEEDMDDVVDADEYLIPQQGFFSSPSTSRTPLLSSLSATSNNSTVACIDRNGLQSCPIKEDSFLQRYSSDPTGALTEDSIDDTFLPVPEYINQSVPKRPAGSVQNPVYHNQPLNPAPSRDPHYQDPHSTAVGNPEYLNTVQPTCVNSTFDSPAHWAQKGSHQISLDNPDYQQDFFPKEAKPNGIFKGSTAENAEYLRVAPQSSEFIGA
panel of more than 300 wild-type and mutant kinases (313 kinase panel) (Homo sapiens, UniProt P00533), sequence (P00533 25-1210, stated change not applied): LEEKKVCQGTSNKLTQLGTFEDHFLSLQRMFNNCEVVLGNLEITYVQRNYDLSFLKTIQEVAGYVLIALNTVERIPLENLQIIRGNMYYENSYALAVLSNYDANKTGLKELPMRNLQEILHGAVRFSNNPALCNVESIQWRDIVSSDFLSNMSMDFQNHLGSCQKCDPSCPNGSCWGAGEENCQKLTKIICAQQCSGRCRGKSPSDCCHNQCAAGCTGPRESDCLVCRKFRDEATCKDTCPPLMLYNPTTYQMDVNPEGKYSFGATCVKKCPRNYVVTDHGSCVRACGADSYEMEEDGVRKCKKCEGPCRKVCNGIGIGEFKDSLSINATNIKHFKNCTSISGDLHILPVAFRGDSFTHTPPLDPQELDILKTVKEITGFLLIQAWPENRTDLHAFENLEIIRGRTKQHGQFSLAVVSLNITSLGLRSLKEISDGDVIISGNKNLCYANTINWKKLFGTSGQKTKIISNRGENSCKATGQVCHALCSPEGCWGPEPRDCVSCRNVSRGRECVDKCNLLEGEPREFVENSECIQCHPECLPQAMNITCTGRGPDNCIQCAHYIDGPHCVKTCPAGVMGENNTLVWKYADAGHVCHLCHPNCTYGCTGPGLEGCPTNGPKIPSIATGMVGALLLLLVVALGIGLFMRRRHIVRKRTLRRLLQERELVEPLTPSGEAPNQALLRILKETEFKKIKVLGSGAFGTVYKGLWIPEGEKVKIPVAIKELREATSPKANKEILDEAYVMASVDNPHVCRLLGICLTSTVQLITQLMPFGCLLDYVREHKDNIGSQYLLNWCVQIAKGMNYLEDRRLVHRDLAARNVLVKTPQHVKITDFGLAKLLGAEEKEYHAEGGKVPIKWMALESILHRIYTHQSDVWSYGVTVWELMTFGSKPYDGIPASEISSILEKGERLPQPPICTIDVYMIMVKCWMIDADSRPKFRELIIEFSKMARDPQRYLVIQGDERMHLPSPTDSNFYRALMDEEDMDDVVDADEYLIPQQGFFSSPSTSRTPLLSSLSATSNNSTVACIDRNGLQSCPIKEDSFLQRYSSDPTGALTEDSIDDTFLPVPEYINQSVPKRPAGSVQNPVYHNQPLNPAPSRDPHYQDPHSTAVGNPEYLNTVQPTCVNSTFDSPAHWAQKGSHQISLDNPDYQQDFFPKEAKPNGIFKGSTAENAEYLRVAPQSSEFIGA
panel of more than 300 wild-type and mutant kinases (313 kinase panel) (Homo sapiens, UniProt O75914), sequence (O75914 whole entry, stated change not applied): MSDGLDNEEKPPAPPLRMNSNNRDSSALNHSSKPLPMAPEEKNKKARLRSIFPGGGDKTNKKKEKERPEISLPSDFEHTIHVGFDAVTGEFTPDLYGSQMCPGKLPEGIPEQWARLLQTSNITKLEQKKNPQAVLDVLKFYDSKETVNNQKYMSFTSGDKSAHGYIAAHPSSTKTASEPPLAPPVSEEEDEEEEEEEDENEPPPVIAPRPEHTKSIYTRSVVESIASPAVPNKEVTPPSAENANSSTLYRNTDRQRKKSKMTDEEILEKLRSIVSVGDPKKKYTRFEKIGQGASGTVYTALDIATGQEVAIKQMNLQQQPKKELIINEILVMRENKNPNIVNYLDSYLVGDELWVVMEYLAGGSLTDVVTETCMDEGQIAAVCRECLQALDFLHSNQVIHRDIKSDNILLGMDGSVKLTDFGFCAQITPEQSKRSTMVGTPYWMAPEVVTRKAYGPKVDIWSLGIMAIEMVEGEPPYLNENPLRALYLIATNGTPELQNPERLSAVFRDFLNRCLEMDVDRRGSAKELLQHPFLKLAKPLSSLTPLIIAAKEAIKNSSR

SMILES: Cc1ccc(Nc2nccc(N(C)c3ccc4c(C)n(C)nc4c3)n2)cc1S(N)(=O)=O [pazopanib]
- %-inhibition of EGFR [1]: 17%
- %-inhibition of EGFR(T790M) [2]: 5%
- %-inhibition of PLK4 [3]: 72%
- %-inhibition of CTK [4]: 4.69%
- %-inhibition of EGFR(L861Q) [5]: 13%
- %-inhibition of PAK3 [6]: 6%
- %-inhibition of EGFR(T790M/L858R) [7]: 43%
